Patent publication US11344510B2, “Arylcyclohexylamine derivatives and their use in the treatment of psychiatric disorders” (Gilgamesh Pharmaceuticals, Inc., priority 2019, dated 2022)
pIC50, pKi: −log10 of the molar value. Where a name gives a salt, the structure may show the parent alone.

Assays:
[1] = HLM stability (High Activity); assay type: in vitro ADME; conditions: both sexes, human, liver microsomes, pH 7.4, Condition 2 (High Activity), 1.0 mg protein/mL
How it was run: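 Pooled male and female human liver microsomes, 1.0 mg protein/mL, in 100 mM PBS pH 7.4 with NADPH-regenerating system; compound 1 μM at 37° C, five time points over 60 min. Parent remaining by LC-MS/MS; kel, t1/2 and Clint from linear regression of ln(AUC) versus time.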

[2] = molecular target: T1, vesicular monoamine transporter 2 (VMAT2) (Homo sapiens, UniProt Q05940); assay: Fluorescent substrate uptake inhibition, VMAT2; assay type: cell-based; conditions: for inhibition at 10 µM: transfected cells
T1 construct: expressed in transfected cells

[3] = RLM stability (High Activity); assay type: in vitro ADME, Sprague Dawley rats; conditions: for half-life at 1 μM / microsomal CLint at 1 μM: male, Sprague Dawley, rat, liver microsomes, pH 7.4, Condition 2 (High Activity), 1.0 mg protein/mL
Experimental: RLM Stability (High Activity). Pooled RLM from male Sprague Dawley rats (XenoTech R1000, lot #1910100) were used. Microsomal incubations were carried out in 96-well plates in 5 aliquots of 40 μL each (one for each time point). Liver microsomal incubation medium consisted of PBS (100 mM, pH 7.4), MgCl2 (3.3 mM), NADPH (3 mM), glucose-6-phosphate (5.3 mM), and glucose-6-phosphate dehydrogenase (0.67 units/mL), with 1.0 mg of liver microsomal protein per mL. Control incubations were performed by replacing the NADPH-cofactor system with PBS. Test compounds (1 μM, final solvent concentration 1.6%) were incubated with microsomes at 37° C., shaking at 100 rpm. Incubations were performed in duplicate. Five time points over 60 minutes were analyzed. The reactions were stopped by adding 9 volumes of 90% acetonitrile-water to incubation aliquots, followed by protein sedimentation by centrifugation at 5500 rpm for 3 minutes. Supernatants were analyzed for parent compound remaining using a fit-for-purpose liquid chromatography-tandem mass spectrometry (LC-MS/MS) method, with authentic samples of each analyte used for identity confirmation.
Data Analysis. The elimination constant (kel), half-life (t1/2) and intrinsic clearance (Clint) were determined in a plot of […] versus time, using linear regression analysis.

[4] = molecular target: MK-801 binding site of the N-methyl-D-aspartate receptor (NMDAR); assay: NMDAR radioligand binding with [3H]MK-801, Method B; design: species or system Sprague Dawley rat; conditions: for pKi: MK-801 site, Method B, male Sprague Dawley rat cortex, 5.0 nM [3H]MK-801, read-out: NMDAR Ki ± SEM
Experimental: Radioligand Binding—Method B. Affinity of the test compounds for NMDAR was determined in radioligand binding experiments with [^3H]MK-801 by WuXi AppTec (Hong Kong) Limited, under the conditions described in Table 13.

T1 sequence (Q05940 whole entry, species assumed): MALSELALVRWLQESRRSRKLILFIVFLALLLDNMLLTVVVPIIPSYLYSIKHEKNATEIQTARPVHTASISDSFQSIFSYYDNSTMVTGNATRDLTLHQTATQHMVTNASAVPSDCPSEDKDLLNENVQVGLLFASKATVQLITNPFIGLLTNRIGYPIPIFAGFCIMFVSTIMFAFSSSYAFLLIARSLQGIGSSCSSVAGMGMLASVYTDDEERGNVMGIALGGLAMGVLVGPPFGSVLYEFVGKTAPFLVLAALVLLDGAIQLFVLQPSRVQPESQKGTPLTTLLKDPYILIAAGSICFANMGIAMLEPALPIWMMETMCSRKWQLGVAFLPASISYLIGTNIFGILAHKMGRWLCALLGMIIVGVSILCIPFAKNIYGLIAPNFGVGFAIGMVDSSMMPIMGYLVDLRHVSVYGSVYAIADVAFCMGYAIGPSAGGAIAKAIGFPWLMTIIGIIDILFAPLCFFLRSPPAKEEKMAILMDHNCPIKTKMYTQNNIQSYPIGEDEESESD

Row | Compound | half-life at 1 μM [1] | microsomal CLint at 1 μM [1] | inhibition at 10 µM [2] | half-life at 1 μM [3] | microsomal CLint at 1 μM [3] | pKi [4] | pIC50 [2] | NMDAR binding affinity, comparison in words ([4]; 14R vs rac-ketamine, (R)-ketamine, (S)-ketamine and 14S, R enantiomers vs S enantiomers or racemates) | metabolic stability compared to non-deuterated counterparts 14R and 14S ([3]; High Activity)
1 | CNC1(c2ccccc2)CCCCC1=O (racemic) [Compound 14rac, 2-(methylamino)-2-phenylcyclohexan-1-one hydrochloride] | 6.12 h | 2 µL/min/mg |  |  |  |  |  |  | 
2 | N[C@]1(c2ccccc2)CCCCC1=O [Compound 11S, (S)-2-amino-2-phenyl-cyclohexan-1-one] | 3.25 h | 4 µL/min/mg | -17.4% | 1.82 h | 6 µL/min/mg | 5.92 |  |  | 
3 | N[C@@]1(c2ccccc2)CCCCC1=O [Compound 11R, (R)-2-amino-2-phenyl-cyclohexan-1-one] | 3.31 h | 3 µL/min/mg | 14.4% | 1.72 h | 7 µL/min/mg | 5.03 |  |  | 
4 | Cc1ccccc1[C@@]1(N)CCCCC1=O [Compound 114S, (S)-2-amino-2-(o-tolyl)cyclohexan-1-one] |  |  | -15.9% |  |  | 5.60 |  |  | 
5 | CNC1(c2ccccc2Cl)CCCCC1=O (racemic) [rac-ketamine, racemic ketamine, reference compound] | 0.613 h | 19 µL/min/mg |  | 0.0767 h | 151 µL/min/mg |  |  |  | 
6 | CN[C@]1(c2cccc(F)c2)CCCCC1=O [Compound 19S, (5)-2-(3-fluorophenyl)-2-(methylamino)cyclohexan-1-one] | 1.59 h | 7 µL/min/mg | -0.87% | 0.313 h | 37 µL/min/mg | 5.68 |  |  | 
7 | O=C1CCCC[C@]1(c1ccccc1)N1CCC1 [Compound 84R, (R)-2-(azetidin-1-yl)-2-phenyl-cyclohexan-1-one] | 2.75 h | 4 µL/min/mg | 14.1% | 0.363 h | 32 µL/min/mg | 5.64 | 4.01 |  | 
8 | CN[C@]1(c2ccccc2)CCCCC1=O [Compound 14S, (S)-2-(methylamino)-2-phenylcyclohexan-1-one] | 6.18 h | 2 µL/min/mg | 7.4% | 0.527 h | 22 µL/min/mg | 6.16 |  |  | 
9 | COCCNC1(c2ccccc2)CCCCC1=O (racemic) [Compound 29rac, 2-((2-methoxyethyl)amino)-2-phenylcyclohexan-1-one] | 2.33 h | 5 µL/min/mg |  | 0.293 h | 39 µL/min/mg | 5.36 |  |  | 
10 | O=C1CCCC[C@@]1(c1ccccc1)N1CCC1 [Compound 84S, (S)-2-(azetidin-1-yl)-2-phenyl-cyclohexan-1-one] | 2.76 h | 4 µL/min/mg | 10.9% | 0.505 h | 23 µL/min/mg | 5.89 | < 4.00 |  | 
11 | Cc1ccccc1[C@]1(N)CCCCC1=O [Compound 114R, (R)-2-amino-2-(o-tolyl)cyclohexan-1-one] |  |  | -14% |  |  | < 4.64 |  |  | 
12 | CN[C@@]1(c2ccccc2)CCCCC1=O [Compound 14R, (R)-2-(methylamino)-2-phenylcyclohexan-1-one] | 9.77 h | 1 µL/min/mg | 6.2% | 0.303 h | 38 µL/min/mg | 5.35 |  | weaker NMDAR binding | 
13 | O=C1CCCCC1(c1ccccc1)N1CCCC1 (racemic) [Compound 27rac, 2-phenyl-2-(pyrrolidin-1-yl)cyclohexan-1-one] | 3.87 h | 3 µL/min/mg | 60.4% |  |  | 5.96 | 4.95 |  | 
14 | [2H]C([2H])([2H])N[C@@]1(c2ccccc2)CCCCC1=O [Compound 88R, (R)-2-((methyl-d3)amino)-2-phenylcyclohexan-1-one] | 2.92 h | 4 µL/min/mg | 20.2% | 0.66 h | 18 µL/min/mg | 5.47 |  |  | increased metabolic stability
